{"source": "paper PMC8962514", "about": "(ACS infectious diseases, 2022)", "key": {"E. faecium #2-1": {"test_system": "E. faecium #2-1", "format": "cell-based, Enterococcus faecium", "details": "#2-1, 16 h"}, "S. aureus USA300 LAC [1]": {"test_system": "S. aureus USA300 LAC", "format": "cell-based, Staphylococcus aureus", "details": "USA300, 16 h"}, "K. pneumoniae KPLN649": {"test_system": "K. pneumoniae KPLN649", "format": "cell-based, Klebsiella pneumoniae", "details": "KPLN649, 16 h"}, "A. baumannii AB5075": {"test_system": "A. baumannii AB5075", "format": "cell-based, Acinetobacter baumannii", "details": "AB5075, 16 h"}, "P. aeruginosa LESB58": {"test_system": "P. aeruginosa LESB58", "format": "cell-based, Pseudomonas aeruginosa", "details": "LESB58, 16 h"}, "E. cloacae 218R1": {"test_system": "E. cloacae 218R1", "format": "cell-based, Enterobacter cloacae", "details": "218R1, 16 h"}, "S. aureus biofilm": {"test_system": "S. aureus biofilm", "assay": "Minimal biofilm inhibition", "format": "cell-based, Staphylococcus aureus", "details": "1.56 μg/mL peptoid, relative to PBS, n = 3"}, "K. pneumoniae biofilm": {"test_system": "K. pneumoniae biofilm", "assay": "Minimal biofilm inhibition", "format": "cell-based, Klebsiella pneumoniae", "details": "1.56 μg/mL peptoid, relative to PBS, n = 3"}, "P. aeruginosa biofilm": {"test_system": "P. aeruginosa biofilm", "assay": "Minimal biofilm inhibition", "format": "cell-based, Pseudomonas aeruginosa", "details": "1.56 μg/mL peptoid, relative to PBS, n = 3"}, "E. cloacae biofilm": {"test_system": "E. cloacae biofilm", "assay": "Minimal biofilm inhibition", "format": "cell-based, Enterobacter cloacae", "details": "1.56 μg/mL peptoid, relative to PBS, n = 3"}, "[2]": {"test_system": "S. aureus pre-formed biofilm", "assay": "Minimal biofilm eradication", "format": "cell-based, Staphylococcus aureus", "details": "12.5 μg/ml peptoid (Figure 4 legend; 6.25 μg/mL), relative to PBS, n = 3"}, "[3]": {"test_system": "K. pneumoniae pre-formed biofilm", "assay": "Minimal biofilm eradication", "format": "cell-based, Klebsiella pneumoniae", "details": "12.5 μg/ml peptoid (Figure 4 legend; 6.25 μg/mL), relative to PBS, n = 3"}, "[4]": {"test_system": "A. baumannii pre-formed biofilm", "assay": "Minimal biofilm eradication", "format": "cell-based, Acinetobacter baumannii", "details": "6.25 μg/ml peptoid, relative to PBS, n = 3"}, "[5]": {"test_system": "P. aeruginosa LESB58 biofilm", "assay": "Biofilm eradication under host-mimicking conditions, monomicrobial", "format": "cell-based, Pseudomonas aeruginosa", "details": "31.25 μg/mL peptoid, DMEM-FBS-G, n = 3"}, "S. aureus USA300 LAC [6]": {"test_system": "S. aureus USA300 LAC", "assay": "Subcutaneous abscess infection model", "format": "in vivo, mice", "details": "1.25 mg/kg for TM8, vs PBS"}, "[7]": {"assay": "Self-assembly in aqueous solution by small angle X-ray scattering", "format": "physicochemical"}, "[8]": {"assay": "In vivo toxicity / maximum tolerated dose", "details": "mice, Table S3"}}, "note": "Non-standard residues stand in square brackets, D forms with d. Residues, ends and D or L forms follow the SMILES beside them. Nspe = C[C@H](NCC(=O)O)c1ccccc1; NDecylGly = CCCCCCCCCCNCC(=O)O; Nlys = NCCCCNCC(=O)O", "data": [{"smiles": "CCCCCCCCCCNCC(=O)N(CCCCN)CC(=O)N(CC(=O)N(CC(=O)N(CCCCN)CC(=O)N(CC(=O)N(CC(N)=O)[C@@H](C)c1ccccc1)[C@@H](C)c1ccccc1)[C@@H](C)c1ccccc1)[C@@H](C)c1ccccc1", "note": "[TM8] (H-[NDecylGly][Nlys][Nspe][Nspe][Nlys][Nspe][Nspe]-NH2)", "values": [{"measurement": "Minimum inhibitory concentration (MIC)", "setting": "E. faecium #2-1", "value": 0.78, "unit": "µg/mL"}, {"measurement": "Minimum inhibitory concentration (MIC)", "setting": "S. aureus USA300 LAC [1]", "value": 3.13, "unit": "µg/mL"}, {"measurement": "Minimum inhibitory concentration (MIC)", "setting": "K. pneumoniae KPLN649", "value": 12.5, "unit": "µg/mL"}, {"measurement": "Minimum inhibitory concentration (MIC)", "setting": "A. baumannii AB5075", "value": 3.13, "unit": "µg/mL"}, {"measurement": "Minimum inhibitory concentration (MIC)", "setting": "P. aeruginosa LESB58", "value": 6.25, "unit": "µg/mL"}, {"measurement": "Minimum inhibitory concentration (MIC)", "setting": "E. cloacae 218R1", "value": 12.5, "unit": "µg/mL"}, {"measurement": "Inhibition of biofilm formation (CV staining)", "setting": "S. aureus biofilm", "value": "inhibited biofilm formation"}, {"measurement": "Inhibition of biofilm formation (CV staining)", "setting": "K. pneumoniae biofilm", "value": "inhibited biofilm formation"}, {"measurement": "Inhibition of biofilm formation (CV staining)", "setting": "P. aeruginosa biofilm", "value": "inhibited biofilm formation"}, {"measurement": "Inhibition of biofilm formation (CV staining)", "setting": "E. cloacae biofilm", "value": "inhibited biofilm formation"}, {"measurement": "Reduction of biomass of pre-formed biofilm (CV staining)", "setting": "[2]", "value": "impacted"}, {"measurement": "Reduction of biomass of pre-formed biofilm (CV staining)", "setting": "[3]", "value": "impacted"}, {"measurement": "Reduction of biofilm metabolic activity (TTC reduction)", "setting": "[4]", "value": "metabolic activity was reduced"}, {"measurement": "Reduction of P. aeruginosa bacterial numbers in biofilm (CFU)", "setting": "[5]", "value": "1,000 fold"}, {"measurement": "Effect on S. aureus abscess size and bacterial burden, in words", "setting": "S. aureus USA300 LAC [6]", "value": "insignificantly reduced"}, {"measurement": "Eccentricity (ε) of ellipsoidal micelles", "setting": "[7]; SAXS model analysis", "value": 1.9}, {"measurement": "Rcore of ellipsoidal micelles", "setting": "[7]; SAXS model analysis", "value": 10, "unit": "Å"}, {"measurement": "dR (shell) of ellipsoidal micelles", "setting": "[7]; SAXS model analysis", "value": 9, "unit": "Å"}, {"measurement": "Aggregation number of ellipsoidal micellar assemblies", "setting": "[7]; SAXS, on average", "value": "~103", "unit": "peptoids"}, {"measurement": "Fraction of larger aggregates", "setting": "[7]; SAXS, upturn at low Q, 4mM, 20°C", "value": "~ 0.08%"}, {"measurement": "Self-assembled structure (SAXS best fit)", "setting": "[7]; aqueous solution, peptoids 4mM, 20°C, theoretical model analysis", "value": "ellipsoidal micellar assemblies"}, {"measurement": "Maximum tolerated dose", "setting": "[8]", "value": 1.25, "unit": "mg/kg"}]}]}
